# Assay results from ChEMBL document CHEMBL3822420, “New peptide deformylase inhibitors design, synthesis and pharmacokinetic assessment” (Bioorg Med Chem Lett, 2016).
# Experiments:
# Type in all cases: functional
# [1] = system: Staphylococcus aureus; assay: Antibacterial activity against methicillin-sensitive Staphylococcus aureus 14-2
# [2] = system: Staphylococcus aureus; assay: Antibacterial activity against methicillin-resistant Staphylococcus aureus 14-5
# [3] = system: Staphylococcus aureus; assay: Antibacterial activity against methicillin-resistant Staphylococcus aureus 14-2
# [4] = system: Escherichia coli; assay: Antibacterial activity against Escherichia coli 14-1 expressing extended-spectrum beta-lactamase
# [5] = system: Staphylococcus epidermidis; assay: Antibacterial activity against methicillin-resistant Staphylococcus epidermidis 14-4
# [6] = system: Enterococcus faecalis; assay: Antibacterial activity against Enterococcus faecalis 14-5
# [7] = system: Enterococcus faecalis; assay: Antibacterial activity against Enterococcus faecalis 14-1
# [8] = system: Staphylococcus aureus; assay: Antibacterial activity against methicillin-sensitive Staphylococcus aureus 14-3
# [9] = system: Escherichia coli; assay: Antibacterial activity against Escherichia coli 14-2 expressing extended-spectrum beta-lactamase
# [10] = system: Staphylococcus epidermidis; assay: Antibacterial activity against methicillin-sensitive Staphylococcus epidermidis 14-3
# [11] = system: Staphylococcus aureus; assay: Antibacterial activity against methicillin-sensitive Staphylococcus aureus 14-4
# [12] = system: Staphylococcus epidermidis; assay: Antibacterial activity against methicillin-resistant Staphylococcus epidermidis 14-3
# [13] = system: Enterococcus faecalis; assay: Antibacterial activity against Enterococcus faecalis 14-3
# [14] = system: Staphylococcus epidermidis; assay: Antibacterial activity against methicillin-sensitive Staphylococcus epidermidis 14-2
# [15] = system: Escherichia coli; assay: Antibacterial activity against Escherichia coli 14-2
# [16] = system: Escherichia coli; assay: Antibacterial activity against Escherichia coli 14-1
# [17] = system: Enterococcus faecalis; assay: Antibacterial activity against Enterococcus faecalis 14-2
# [18] = system: Staphylococcus epidermidis; assay: Antibacterial activity against methicillin-sensitive Staphylococcus epidermidis 14-1
# [19] = system: Staphylococcus aureus; assay: Antibacterial activity against methicillin-resistant Staphylococcus aureus 14-1
# [20] = system: Staphylococcus aureus; assay: Antibacterial activity against methicillin-sensitive Staphylococcus aureus 14-1
# [21] = system: Staphylococcus aureus; assay: Antibacterial activity against methicillin-resistant Staphylococcus aureus 14-4
# [22] = system: Staphylococcus epidermidis; assay: Antibacterial activity against methicillin-resistant Staphylococcus epidermidis 14-1
# [23] = system: Staphylococcus epidermidis; assay: Antibacterial activity against methicillin-resistant Staphylococcus epidermidis 14-2
SMILES,MIC [1],MIC [2],MIC [3],MIC [4],MIC [5],MIC [6],MIC [7],MIC [8],MIC [9],MIC [10],MIC [11],MIC [12],MIC [13],MIC [14],MIC [15],MIC [17],MIC [18],MIC [19],MIC [20],MIC [21],also measured
CO[C@H]1/C=C/O[C@@]2(C)Oc3c(C)c(O)c4c(O)c(c(/C=N/N5CCN(C)CC5)c(O)c4c3C2=O)NC(=O)/C(C)=C\C=C\[C@H](C)[C@H](O)[C@@H](C)[C@@H](O)[C@@H](C)[C@H](OC(C)=O)[C@@H]1C [RIFAMPIN],0.008 µg/mL,> 128 µg/mL,> 128 µg/mL,2 µg/mL,< 0.008 µg/mL,4 µg/mL,1 µg/mL,0.008 µg/mL,2 µg/mL,0.008 µg/mL,< 0.008 µg/mL,0.008 µg/mL,2 µg/mL,< 0.008 µg/mL,2 µg/mL,2 µg/mL,< 0.008 µg/mL,> 128 µg/mL,< 0.008 µg/mL,> 128 µg/mL,MIC [16]: 2 µg/mL
C[C@H]1COc2c(N3CCN(C)CC3)c(F)cc3c(=O)c(C(=O)O)cn1c23.C[C@H]1COc2c(N3CCN(C)CC3)c(F)cc3c(=O)c(C(=O)O)cn1c23.O [LEVOFLOXACIN],0.5 µg/mL,> 128 µg/mL,> 128 µg/mL,32 µg/mL,16 µg/mL,2 µg/mL,2 µg/mL,32 µg/mL,64 µg/mL,0.5 µg/mL,16 µg/mL,16 µg/mL,2 µg/mL,0.5 µg/mL,,4 µg/mL,0.5 µg/mL,128 µg/mL,16 µg/mL,> 128 µg/mL,MIC [22]: 16 µg/mL; MIC [23]: 16 µg/mL
CCCC[C@H](CN(O)C=O)C(=O)N1CC2(CC2)C[C@H]1C(=O)Nc1cccc(Nc2ncccn2)c1,0.25 µg/mL,0.125 µg/mL,0.25 µg/mL,1 µg/mL,0.25 µg/mL,1 µg/mL,0.5 µg/mL,0.25 µg/mL,64 µg/mL,0.125 µg/mL,0.125 µg/mL,0.06 µg/mL,1 µg/mL,0.25 µg/mL,128 µg/mL,1 µg/mL,0.125 µg/mL,0.25 µg/mL,0.25 µg/mL,0.25 µg/mL,MIC [22]: 0.125 µg/mL; MIC [16]: 128 µg/mL; MIC [23]: 0.25 µg/mL
CCCC[C@H](CN(O)C=O)C(=O)N1CC2(CC2)C[C@H]1c1nnc(-c2ccccn2)o1,2 µg/mL,2 µg/mL,4 µg/mL,0.5 µg/mL,4 µg/mL,8 µg/mL,4 µg/mL,2 µg/mL,64 µg/mL,0.5 µg/mL,2 µg/mL,0.5 µg/mL,8 µg/mL,1 µg/mL,64 µg/mL,8 µg/mL,1 µg/mL,4 µg/mL,4 µg/mL,4 µg/mL,MIC [22]: 1 µg/mL; MIC [16]: 128 µg/mL; MIC [23]: 0.5 µg/mL
Cc1nc(NNC(=O)[C@H](CC2CCCC2)CN(O)C=O)c(F)c(N2CCN3CCOC[C@@H]3C2)n1 [LANOPEPDEN],1 µg/mL,0.25 µg/mL,1 µg/mL,1 µg/mL,0.25 µg/mL,> 64 µg/mL,8 µg/mL,1 µg/mL,> 64 µg/mL,0.06 µg/mL,1 µg/mL,0.015 µg/mL,16 µg/mL,0.25 µg/mL,64 µg/mL,16 µg/mL,0.125 µg/mL,2 µg/mL,1 µg/mL,2 µg/mL,MIC [22]: 0.125 µg/mL; MIC [16]: 64 µg/mL; MIC [23]: 0.06 µg/mL
CCCC[C@H](CN(O)C=O)C(=O)N1CC2(CC2)C[C@H]1C(=O)Nc1nccc(-c2cccnc2)n1,0.5 µg/mL,0.25 µg/mL,0.5 µg/mL,2 µg/mL,0.5 µg/mL,0.5 µg/mL,0.5 µg/mL,0.5 µg/mL,> 64 µg/mL,0.25 µg/mL,0.25 µg/mL,0.125 µg/mL,1 µg/mL,0.5 µg/mL,> 64 µg/mL,0.5 µg/mL,0.125 µg/mL,2 µg/mL,0.25 µg/mL,2 µg/mL,MIC [22]: 0.25 µg/mL; MIC [16]: > 64 µg/mL; MIC [23]: 0.25 µg/mL
